{
  "source": "patent US20250319139A1",
  "about": "“METHODS FOR TREATING NEUROINFLAMMATION” (University of Virginia Patent Foundation, priority 2021, published 2025)",
  "key": {"[1]": {"assay": "Cortical valeric acid quantification by HPLC", "format": "in vivo, mouse", "details": "9-week old mice, intraperitoneal valeric acid vs normal saline; 24 h after the last injection", "experimental": "The amount of valeric acid in the cerebral cortex harvested 24 h after the last intraperitoneal injection of valeric acid was determined by a method similar to that reported before. Briefly, 0.1 g cerebral cortex was homogenized in 500 μl aqueous acetonitrile. Supernatant was extracted with 8 ml extraction buffer (hexane: diethyl ether=1:1) and centrifuged at 1800 g for 5 min. 7.5 ml supernatant was collected, mixed with 93 μl 20 mM KOH in methanol and dried at 40° C. under nitrogen gas. Dried residue was reconstituted in 50 μl 2.5% 18-Crown-6 in acetonitrile and was further derivatized with 9-chloromethylanthracene in acetonitrile with addition of tetramethylammonium hydroxide. Finally, 30 μl derivatization solution was loaded to Acclaim C18 column (3 μm, 4.6×100 mm, Thermo Scientific) and separated in Ultimate 3000 high performance liquid chromatograph (HPLC, Thermo Scientific) equipped with UV-visible detector. The peak of derivatized valeric acid was detected at a wavelength of 254 nm. 2-Ethylbutyric acid (2-EA) was added as an internal reference control. The peak area of valeric acid was measured as mAU*min and its peak area of each sample was normalized with that of 2-EA in the sample. Final results were presented as ratios of valeric acid group to NS group."}, "[2]": {"system": "C57BL/6J mice", "assay": "Barnes maze test, young adult mice", "format": "in vivo, mouse"}, "[3]": {"system": "IL-6", "assay": "IL-6 in the hippocampus by ELISA", "format": "in vivo, mouse", "details": "young adult mice with exercise and surgery; intraperitoneal valeric acid", "experimental": "IL-1β, IL-6, C3 and GDNF in the hippocampus were detected by using ELISA kits. For testing the IL-1β, IL-6 and GDNF, brain tissues were homogenized on ice in the RIPA buffer containing 25 mM Tris-HCl with pH 7.6, 150 mM NaCl, 1% sodium deoxycholate, 0.1% SDS and a protease inhibitor cocktail containing 10 mg/ml aproteinin, 5 mg/ml peptastin, 5 mg/ml leupetin and 1 mM phenylmethane sulfonylfluoride. For C3 testing, brain tissues were homogenized on ice in the PTR buffer (supplied in the kit). The supernatant was collected for ELISA detection after the homogenate was centrifuged at 13,000 g for 20 min at 4° C. and the protein concentration was determined by the BCA protein assay (Bio-Rad, Hemel Hempstead, Herts, UK). IL-1β, IL-6, C3 and GDNF in supernatant of brain were detected according to the manufacturer's instruction for ELISA, and the amount of them in each sample in the brain was normalized by its total protein content and was expressed as pg/mg protein."}, "[4]": {"system": "IL-6", "assay": "ELISA of IL-6 in the serum", "format": "in vivo, mouse", "details": "young mice, 100 mg/kg intraperitoneal 1 h before and 6 h after 120-min MCAO; 24 h after MCAO; vs saline", "experimental": "Mice were weighed and anesthetized with isoflurane at 24 h after MCAO. Blood samples were obtained from the right heart after thoracotomy. Blood was centrifuged (13,000 g, 4° C.) after it had been placed at 4° C. for 2 h for the collection of serum. After the collection of blood, mice were perfused with 4° C. saline for brain tissue harvesting. The cerebral cortex (anteroposterior: −1.5 to 2.5 mm, mediolateral: 1.0 to 3.0 mm) was dissected out. All dissection procedures were performed on ice.\nIL-10, IL-17, IL-1β and IL-6 in the serum and brain were detected by using ELISA kits (catalog number: M1000B, M1700, MLB00C and D6050, R&D SYSTEM, Inc., Minneapolis, MN, USA) as we described before. The brain tissues were homogenized on ice in the RIPA buffer containing 25 mM Tris-HCl with pH 7.6, 150 mM NaCl, 1% sodium deoxycholate and 0.1% SDS (catalog number: 89901, Thermo Scientific, Rockford, IL, USA) and a protease inhibitor cocktail containing 10 mg/ml aproteinin, 5 mg/ml peptastin, 5 mg/ml leupetin and 1 mM phenylmethane sulfonylfluoride (catalog number: SRE0055, Sigma-Aldrich, St. Louis, MO, USA). The supernatant was collected for ELISA detection after being centrifuged for 20 min (13,000 g, 4° C.) and the protein concentration was determined by the BCA method. Cytokines in the serum and supernatant of brain were detected according to the manufacturer's instruction. […]"}, "[5]": {"details": "references [27, 32]; cited from earlier work"}, "[6]": {"system": "newly generated brain cells", "assay": "BrdU immunofluorescent staining, brain cell genesis", "format": "in vivo, mouse", "details": "young adult mice with exercise and surgery; intraperitoneal valeric acid", "experimental": "Seven days after surgery, mice were given 7 consecutive intraperitoneal injections of 80 mg/kg 5′-bromo-2′-deoxyuridine (BrdU) at 12:00 once daily as previously described. Mice were sacrificed 5 days later for harvesting hippocampus. Hippocampus was fixed in 4% paraformaldehyde in 0.1 M phosphate-buffered saline at 4° C. for 24 h and embedded in paraffin. Five-micron thick coronal brain sections were cut sequentially from Bregma −2 to −4 mm. Antigen retrieval was performed by incubating sections with sodium citrate buffer containing 10 mM sodium citrate, 0.05% Tween 20 (pH 6.0) at 95-100° C. for 20 min. DNA denaturation was done by incubating with 1 N HCl on ice for 3 min, 2 N HCL at room temperature for 3 min, and at 37° C. for 6 min. Sections were blocked with 5% donkey serum in phosphate-buffered saline (PBS) containing 0.5% triton-X 100 for 2 h at room temperature. […] Images were acquired with a fluorescence microscope with a charge-coupled device camera (High Mag Olympus BX51) and a LSM710 confocal microscopy system (ZEISS). […] The number of all cells positively stained for an interested marker or the combination of two markers in the sub-granular zone of the dentate gyrus of each section was counted. The quantitative analyses were performed in a blinded manner."}, "[7]": {"assay": "Plasma SCFA profiling by GC-MS", "format": "in vivo, mouse", "details": "mice with exercise and surgery, intraperitoneal valeric acid; blood 7 days after surgery"}},
  "note": "Entries after “also recorded” stand apart in the source; their conditions may differ.",
  "data": [
    {"smiles": "CCCCC(=O)O", "note": "[valeric acid]", "values": [
      {"measurement": "amount of valeric acid in the brain (cerebral cortex)", "setting": "[1]", "value": "increased"},
      {"measurement": "performance in the Barnes maze", "setting": "[2]; 13-week old mice without surgery, intracerebroventricular 4 mg/kg once daily for 4 days (1/50 dose of intraperitoneal injection)", "value": "did not affect the performance"},
      {"measurement": "time to identify target box in the Barnes maze test", "setting": "[2]; young adult mice with exercise and surgery, valeric acid 200 mg/kg intraperitoneal once a week vs normal saline", "value": "reversed the effects of exercise"},
      {"measurement": "exercise-induced reduction of IL-6 in the hippocampus", "setting": "[3]", "value": "this reduction was blocked"},
      {"measurement": "IL-6 in the blood", "setting": "[4]", "value": "increased"},
      {"measurement": "crossing of blood-brain barrier", "setting": "[5]", "value": "can cross blood-brain barrier"},
      {"measurement": "exercise attenuation of the decrease of newly generated brain cells", "setting": "[6]", "value": "this attenuation was blocked"},
      {"measurement": "butyric acid in the blood", "setting": "[7]", "value": "attenuated this reduction"},
      {"measurement": "hexanic acid in the blood", "setting": "[7]", "value": "attenuated this reduction"},
      {"measurement": "valeric acid in the blood", "setting": "[7]", "value": "attenuated this reduction; also recorded: did not increase"}
    ]}
  ]
}
